In EPA's CvTdb concentration-time database:

Tests used:
Rat [1] = assay: concentration in liver after dosing; settings: dosed: Perfluorodecanoic acid, 10 mg/kg, oral
Rat [2] = assay: concentration in brain after dosing; settings: dosed: Perfluorodecanoic acid, 10 mg/kg, oral
Rat [3] = assay: concentration in plasma after dosing; settings: dosed: Perfluorodecanoic acid, 2 mg/kg
Rat [4] = assay: concentration in kidney after dosing; settings: dosed: Perfluorodecanoic acid, 10 mg/kg, oral
Rat [5] = assay: concentration in plasma after dosing; settings: dosed: Perfluorodecanoic acid, 2 mg/kg, iv, Male, F344

O=C(O)C(F)(F)C(F)(F)C(F)(F)C(F)(F)C(F)(F)C(F)(F)C(F)(F)C(F)(F)C(F)(F)F [Perfluorodecanoic acid]
Settings | concentration in brain, Rat [2] [ng/g] | concentration in kidney, Rat [4] [ng/g] | concentration in liver, Rat [1] [ng/g]
1 h, Female, Harlan Sprague Dawley | 581 | 18100 | 43800
1 h, Male, Harlan Sprague Dawley | – | 12400 | 56500
24 h, Female, Harlan Sprague Dawley | 2750 | 46800 | 102000
24 h, Male, Harlan Sprague Dawley | 2360 | 24600 | 107000
24 h, Male, Harlan Sprague Dawley - this seems too small | 2580 | 29500 | 125000
864 h, Female, Harlan Sprague Dawley | 926 | 18300 | 45900
864 h, Male, Harlan Sprague Dawley | 1240 | 11100 | 56700
1848 h, Female, Harlan Sprague Dawley | 526 | 5210 | 21200
1848 h, Male, Harlan Sprague Dawley | 602 | 4000 | 32600
3360 h, Female, Harlan Sprague Dawley | – | 2740 | 7920
3360 h, Male, Harlan Sprague Dawley | – | 1530 | 9980

Rat [3]
Settings | concentration in plasma [ng/mL]
0.5 h, oral, Male, Harlan Sprague Dawley | 1650
1 h, iv, Male, F344 | 5650
1 h, oral, Male, Harlan Sprague Dawley | 3170
2 h, oral, Male, Harlan Sprague Dawley | 3960
5 min, iv, Female, Harlan Sprague-Dawley | 7650
5 min, iv, Male, F344 | 7380
6 h, iv, Male, F344 | 5650
12 h, iv, Female, Harlan Sprague-Dawley | 5320
12 h, iv, Male, F344 | 6200
12 h, oral, Male, Harlan Sprague Dawley | 7680
24 h, iv, Male, F344 | 4850
24 h, oral, Male, Harlan Sprague Dawley | 6970
192 h, iv, Female, Harlan Sprague-Dawley | 5740
192 h, iv, Male, F344 | 2770
192 h, oral, Male, Harlan Sprague Dawley | 4850
528 h, iv, Male, F344 | 2240
528 h, oral, Male, Harlan Sprague Dawley | 2640
864 h, iv, Male, F344 | 1230
1200 h, iv, Female, Harlan Sprague-Dawley | 2250
1200 h, iv, Male, F344 | 719
1200 h, oral, Male, Harlan Sprague Dawley | 1700
1848 h, iv, Male, F344 | 437
1848 h, oral, Male, Harlan Sprague Dawley | 907
2520 h, iv, Male, F344 | 124
2520 h, oral, Male, Harlan Sprague Dawley | 687
3360 h, iv, Male, F344 | 277
3360 h, oral, Male, Harlan Sprague Dawley | 498

Rat [5]
Settings | concentration in plasma [ng/mL]
6 h | 6240
864 h | 2140
